Source: patent US20120029187A1, “HALOALKYLSULFONANILIDE DERIVATIVE” (Nissan Chemical Industries, Ltd., priority 2009, published 2012)

Columns and labels:
Type in all cases: in vivo
barnyardgrass [1] = experiment: Test Example 1: herbicidal effects in preemergence treatment under submerged conditions; details: dose 2.52 g/a
Summary of the method: (§1)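 Alluvial soil was flooded to 4 cm, sown with barnyardgrass, bulrush and ducksalad, and planted with 2.5-leaf rice seedlings. On the seeding day, water-diluted emulsifiable concentrates were applied to the water surface at set doses (g/a). After three weeks in a 25 to 30° C. greenhouse, mortality was scored 0–5.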

bulrush [2] = experiment: as above; details: dose 2.52 g/a
Summary of the method: as §1

ducksalad [3] = experiment: as above; details: dose 2.52 g/a
Summary of the method: as §1

transplanted rice = experiment: Test Example 1: preemergence treatment under submerged conditions, effect on crop; details: dose 2.52 g/a
Summary of the method: as §1

barnyardgrass [4] = experiment: Test Example 2: herbicidal effects during the vegetation period under submerged conditions; details: treatment during the vegetation period under submerged conditions; dose 2.52 g/a
Summary of the method: (§2)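 Barnyardgrass, bulrush and ducksalad were co-sown in alluvial soil flooded to 4 cm and grown in a greenhouse at 25 to 30° C. At the 1- or 2-leaf stage, water-diluted emulsifiable concentrates went onto the water surface at set doses (g/a). Herbicidal effect was scored three weeks later on a graded scale.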

bulrush [5] = experiment: as above; details: treatment during the vegetation period under submerged conditions; dose 2.52 g/a
Summary of the method: as §2

ducksalad [6] = experiment: as above; details: treatment during the vegetation period under submerged conditions; dose 2.52 g/a
Summary of the method: as §2

Italian ryegrass [7] = experiment: Test Example 3: herbicidal effects in soil treatment; details: dose 3.2 g/a
Summary of the method: (§3)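 Seeds were sown in sterilized diluvial soil and covered with about 1.5 cm of soil. Compounds, formulated as emulsifiable concentrates and diluted with water, were sprayed evenly over the soil surface at set doses in g/a. Herbicidal effect was scored on a rating scale three weeks later.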

barnyardgrass [8] = experiment: as above; details: dose 3.2 g/a
Summary of the method: as §3

beadstraw [9] = experiment: as above; details: dose 3.2 g/a
Summary of the method: as §3

common chickweed [10] = experiment: as above; details: dose 3.2 g/a
Summary of the method: as §3

common lambsquater [11] = experiment: as above; details: dose 3.2 g/a
Summary of the method: as §3

common ragweed [12] = experiment: as above; details: dose 3.2 g/a
Summary of the method: as §3

giant foxtail [13] = experiment: as above; details: dose 3.2 g/a
Summary of the method: as §3

large crabgrass [14] = experiment: as above; details: dose 3.2 g/a
Summary of the method: as §3

posumbu knotweed [15] = experiment: as above; details: dose 3.2 g/a
Summary of the method: as §3

redroot pigweed [16] = experiment: as above; details: dose 3.2 g/a
Summary of the method: as §3

water foxtail [17] = experiment: as above; details: dose 3.2 g/a
Summary of the method: as §3

wild oat [18] = experiment: as above; details: dose 3.2 g/a
Summary of the method: as §3

Italian ryegrass [19] = experiment: Test Example 4: herbicidal effect in foliage treatment; details: dose 3.2 g/a
Summary of the method: (§4)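 Seeds were spot-sown in boxes of sterilized diluvial soil and raised in a greenhouse (25 to 30° C) for 14 days before a single foliar application. Compounds were applied as emulsifiable concentrates diluted with water, at predetermined doses in g/a. Injury was graded three weeks post-spray.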

barnyardgrass [20] = experiment: as above; details: dose 3.2 g/a
Summary of the method: as §4

beadstraw [21] = experiment: as above; details: dose 3.2 g/a
Summary of the method: as §4

common chickweed [22] = experiment: as above; details: dose 3.2 g/a
Summary of the method: as §4

common lambsquater [23] = experiment: as above; details: dose 3.2 g/a
Summary of the method: as §4

common ragweed [24] = experiment: as above; details: dose 3.2 g/a
Summary of the method: as §4

giant foxtail [25] = experiment: as above; details: dose 3.2 g/a
Summary of the method: as §4

large crabgrass [26] = experiment: as above; details: dose 3.2 g/a
Summary of the method: as §4

posumbu knotweed [27] = experiment: as above; details: dose 3.2 g/a
Summary of the method: as §4

redroot pigweed [28] = experiment: as above; details: dose 3.2 g/a
Summary of the method: as §4

velvetleaf [29] = experiment: as above; details: dose 3.2 g/a
Summary of the method: as §4

water foxtail [30] = experiment: as above; details: dose 3.2 g/a
Summary of the method: as §4

wild oat [31] = experiment: as above; details: dose 3.2 g/a
Summary of the method: as §4

velvetleaf [32] = experiment: Test Example 3: herbicidal effects in soil treatment; details: dose 3.2 g/a
Summary of the method: as §3

[33] = three weeks after the application

In the case of `CCOC(=O)N(c1ccccc1CN1COC(C(F)(F)F)CC1=O)S(=O)(=O)C(F)(F)F` (stereo not shown) [II-15], the “A: barnyardgrass, herbicidal effect (evaluation scale 0-5)” value (barnyardgrass [1]) is reported as 5 (mortality of 90% or above (nearly complete death)), the “B: bulrush, herbicidal effect (evaluation scale 0-5)” value (shortened to “B: bulrush, herbicidal effect”) (bulrush [2]) is reported as 5 (mortality of 90% or above (nearly complete death)) and the “C: ducksalad, herbicidal effect (evaluation scale 0-5)” value (“C: ducksalad, herbicidal effect” for short) (ducksalad [3]) is reported as 5 (mortality of 90% or above (nearly complete death)). The “a: transplanted rice, effect on crop (evaluation scale 0-5)” value (transplanted rice) was 0 (mortality of less than 5% (almost ineffective)), the “A: barnyardgrass, herbicidal effect (evaluation scale 0-5)” value (barnyardgrass [4]) was 5 (mortality of 90% or above (nearly complete death)) and the “B: bulrush, herbicidal effect” value (bulrush [5]) was 5 (mortality of 90% or above (nearly complete death)). For the same molecule, the “C: ducksalad, herbicidal effect” value (ducksalad [6]) was 5 (mortality of 90% or above (nearly complete death)), the “H: Italian ryegrass, herbicidal effect (evaluation scale 0-5)” value (Italian ryegrass [7]) was 4 (mortality of at least 70% and less than 90%) and the “A: barnyardgrass, herbicidal effect (evaluation scale 0-5)” value (barnyardgrass [8]) was 4 (mortality of at least 70% and less than 90%). For the same molecule, the “O: beadstraw, herbicidal effect (evaluation scale 0-5)” value (beadstraw [9]) was 0 (mortality of less than 5% (almost ineffective)), the “N: common chickweed, herbicidal effect (evaluation scale 0-5)” value (common chickweed [10]) was 4 (mortality of at least 70% and less than 90%) and the “L: common lambsquater, herbicidal effect (evaluation scale 0-5)” value (common lambsquater [11]) was 4 (mortality of at least 70% and less than 90%). The “J: common ragweed, herbicidal effect (evaluation scale 0-5)” value (common ragweed [12]) was 4 (mortality of at least 70% and less than 90%), the “E: giant foxtail, herbicidal effect (evaluation scale 0-5)” value (giant foxtail [13]) was 0 (mortality of less than 5% (almost ineffective)) and the “D: large crabgrass, herbicidal effect (evaluation scale 0-5)” value (large crabgrass [14]) was 5 (mortality of 90% or above (nearly complete death)). The “M: posumbu knotweed, herbicidal effect (evaluation scale 0-5)” value (posumbu knotweed [15]) was 0 (mortality of less than 5% (almost ineffective)), the “K: redroot pigweed, herbicidal effect (evaluation scale 0-5)” value (redroot pigweed [16]) was 4 (mortality of at least 70% and less than 90%) and the “G: water foxtail, herbicidal effect (evaluation scale 0-5)” value (water foxtail [17]) was 5 (mortality of 90% or above (nearly complete death)). For the same molecule, the “F: wild oat, herbicidal effect (evaluation scale 0-5)” value (wild oat [18]) was 0 (mortality of less than 5% (almost ineffective)), the “H: Italian ryegrass, herbicidal effect” value (Italian ryegrass [19]; three weeks after application) was 1 (mortality of at least 5% and less than 20%) and the “A: barnyardgrass, herbicidal effect” value (barnyardgrass [20]; three weeks after application) was 4 (mortality of at least 70% and less than 90%). For the same molecule, the “O: beadstraw, herbicidal effect” value (beadstraw [21]; three weeks after application) was 4 (mortality of at least 70% and less than 90%), the “N: common chickweed, herbicidal effect” value (common chickweed [22]; three weeks after application) was 4 (mortality of at least 70% and less than 90%) and the “L: common lambsquater, herbicidal effect” value (common lambsquater [23]; three weeks after application) was 4 (mortality of at least 70% and less than 90%). For the same molecule, the “J: common ragweed, herbicidal effect” value (common ragweed [24]; three weeks after application) was 3 (mortality of at least 40% and less than 70%), the “E: giant foxtail, herbicidal effect” value (giant foxtail [25]; three weeks after application) was 3 (mortality of at least 40% and less than 70%) and the “D: large crabgrass, herbicidal effect” value (large crabgrass [26]; three weeks after application) was 4 (mortality of at least 70% and less than 90%). For the same molecule, the “M: posumbu knotweed, herbicidal effect” value (posumbu knotweed [27]; three weeks after application) was 3 (mortality of at least 40% and less than 70%), the “K: redroot pigweed, herbicidal effect” value (redroot pigweed [28]; three weeks after application) was 0 (mortality of less than 5% (almost ineffective)) and the “I: velvetleaf, herbicidal effect” value (velvetleaf [29]; three weeks after application) was 5 (mortality of 90% or above (nearly complete death)). For the same molecule, the “G: water foxtail, herbicidal effect” value (water foxtail [30]; three weeks after application) was 5 (mortality of 90% or above (nearly complete death)) and the “F: wild oat, herbicidal effect” value (wild oat [31]; three weeks after application) was 0 (mortality of less than 5% (almost ineffective)).
With `CCOC(=O)N(c1ccccc1CN1CSCCC1=O)S(=O)(=O)C(F)(F)F` [II-79] the “A: barnyardgrass, herbicidal effect (evaluation scale 0-5)” value (barnyardgrass [1]) was 5 (mortality of 90% or above (nearly complete death)), the “B: bulrush, herbicidal effect” value (bulrush [2]) was 5 (mortality of 90% or above (nearly complete death)) and the “C: ducksalad, herbicidal effect” value (ducksalad [3]) was 5 (mortality of 90% or above (nearly complete death)). The “a: transplanted rice, effect on crop (evaluation scale 0-5)” value (transplanted rice) was 0 (mortality of less than 5% (almost ineffective)), the “A: barnyardgrass, herbicidal effect (evaluation scale 0-5)” value (barnyardgrass [4]) was 5 (mortality of 90% or above (nearly complete death)) and the “B: bulrush, herbicidal effect” value (bulrush [5]) was 5 (mortality of 90% or above (nearly complete death)). The “C: ducksalad, herbicidal effect” value (ducksalad [6]) was 5 (mortality of 90% or above (nearly complete death)), the “herbicidal effect, H: Italian ryegrass” value (Italian ryegrass [7]) was 3 (mortality of at least 40% and less than 70%) and the “herbicidal effect, A: barnyardgrass” value (barnyardgrass [8]) was 5 (mortality of 90% or above (nearly complete death)). For the same molecule, the “herbicidal effect, O: beadstraw” value (beadstraw [9]) was 0 (mortality of less than 5% (almost ineffective)), the “herbicidal effect, N: common chickweed” value (common chickweed [10]) was 4 (mortality of at least 70% and less than 90%) and the “herbicidal effect, L: common lambsquater” value (common lambsquater [11]) was 3 (mortality of at least 40% and less than 70%). The “herbicidal effect, J: common ragweed” value (common ragweed [12]) was 4 (mortality of at least 70% and less than 90%), the “herbicidal effect, E: giant foxtail” value (giant foxtail [13]) was 5 (mortality of 90% or above (nearly complete death)) and the “herbicidal effect, D: large crabgrass” value (large crabgrass [14]) was 5 (mortality of 90% or above (nearly complete death)). The “herbicidal effect, K: redroot pigweed” value (redroot pigweed [16]) was 2 (mortality of at least 20% and less than 40%), the “herbicidal effect, I: velvetleaf” value (velvetleaf [32]) was 5 (mortality of 90% or above (nearly complete death)) and the “herbicidal effect, G: water foxtail” value (water foxtail [17]) was 5 (mortality of 90% or above (nearly complete death)). For the same molecule, the “herbicidal effect, F: wild oat” value (wild oat [18]) was 0 (mortality of less than 5% (almost ineffective)), the “H: Italian ryegrass, herbicidal effect” value (Italian ryegrass [19]; [33]) was 3 (mortality of at least 40% and less than 70%) and the “A: barnyardgrass, herbicidal effect” value (barnyardgrass [20]; [33]) was 5 (mortality of 90% or above (nearly complete death)). The “O: beadstraw, herbicidal effect” value (beadstraw [21]; [33]) was 4 (mortality of at least 70% and less than 90%), the “N: common chickweed, herbicidal effect” value (common chickweed [22]; [33]) was 4 (mortality of at least 70% and less than 90%) and the “L: common lambsquater, herbicidal effect” value (common lambsquater [23]; [33]) was 3 (mortality of at least 40% and less than 70%). For the same molecule, the “J: common ragweed, herbicidal effect” value (common ragweed [24]; [33]) was 4 (mortality of at least 70% and less than 90%), the “E: giant foxtail, herbicidal effect” value (giant foxtail [25]; [33]) was 4 (mortality of at least 70% and less than 90%) and the “D: large crabgrass, herbicidal effect” value (large crabgrass [26]; [33]) was 4 (mortality of at least 70% and less than 90%). For the same molecule, the “M: posumbu knotweed, herbicidal effect” value (posumbu knotweed [27]; [33]) was 4 (mortality of at least 70% and less than 90%), the “K: redroot pigweed, herbicidal effect” value (redroot pigweed [28]; [33]) was 1 (mortality of at least 5% and less than 20%) and the “I: velvetleaf, herbicidal effect” value (velvetleaf [29]; [33]) was 4 (mortality of at least 70% and less than 90%). For the same molecule, the “G: water foxtail, herbicidal effect” value (water foxtail [30]; [33]) was 5 (mortality of 90% or above (nearly complete death)) and the “F: wild oat, herbicidal effect” value (wild oat [31]; [33]) was 0 (mortality of less than 5% (almost ineffective)).
